Measured values published in patent US10258691B2 (SignPath Pharma Inc., priority 2014, dated 2019).
Where “and” joins values, the source holds several entries; their conditions need not be identical. Equal entries are not always repeated. Entries after “also recorded” stand apart in the source; their conditions may differ. Structures can show the parent of a compound that is named as a salt.

Tests used:
hERG [1] = molecular target: T1, hERG (Homo sapiens, UniProt Q12809); test: Whole-cell patch-clamp, protective effect of 10:0-18:0 Lyso PG and 14:0 EGPG against hERG inhibition by Nilotinib; assay type: cell-based; set-up: expressed in transfected cells; host or cells: HEK 293, stably transfected with the hERG gene (HEK-hERG); settings: for protective effect against hERG inhibition by Nilotinib (in words): PLs/Nilo ratio 9:1; for inhibition of the hERG tail current (in words): lipid alone or Nilotinib 0.5 μg/mL formulated with lipid […] (9:1)
Experimental: The purpose of this study is to evaluate in vitro the protective effect of 10:0 Lyso PG, 12:0 Lyso PG, 14:0 Lyso PG, 16:0 Lyso PG, 18:0 Lyso PG and 14:0 EGPG on the rapidly activating delayed-rectifier potassium selective current (IK) generated under normoxic conditions in stably transfected Human Embryonic Kidney cells (HEK 293 cells).
The test samples were prepared as follows. […] The solution was vortexed for 10 minutes before being used in the patch-clamp assay.
Test performed: Whole-cell patch-clamp current acquisition and analysis. Temperature: 35±2° C. Original data acquisition design: Acquisition Rate(s): 1.0 kHz.
Patch-clamp current recording. […] Isolated cells were plated into 2-mL experimental chambers, mounted on the platform of an inverted microscope. The cells were superfused with external solution (in mM: NaCl 140.0, KCl 5.0, CaCl2 1.8, MgCl2 1.0, HEPES 10.0, dextrose 10.0, pH 7.4±0.05). A 2-10 MΩ resistance pipette was filled with the pipette solution (in mM: KCl 140.0, MgCl2 1.0, Mg-ATP 4.0, EGTA 5.0, HEPES 10.0, sucrose 10.0, pH 7.4±0.05), and brought to contact the external membrane of a single cell.
Application of test samples: 5 minutes of exposure to each concentration in presence of closed circuit perfusion (2 mL/min). 5 minutes for washout periods in presence of a flow-through perfusion (2 mL/min) in addition to a closed circuit perfusion (2 mL/min). […] Cells were under continuous stimulation of the pulses protocol throughout the studies and cell currents were recorded after 5 minutes of exposure to each condition.
Statistical analysis: Statistical comparisons were made using paired Student's t-tests, comparing each treatment period with its corresponding value at the baseline condition. The currents recorded after the exposure of each test sample were compared to the currents recorded in baseline conditions. Differences were considered significant when p≤0.05.
Effect of the Test Samples on whole-cell IKr hERG currents. Whole-cell currents elicited during a voltage pulse were recorded in baseline conditions and following the application of the selected concentration of test sample. The cells were depolarized for one second from the holding potential (−80 mV) to a maximum value of +40 mV, starting at −40 mV and progressing in 10 mV increments. The membrane potential was then repolarized to −55 mV for one second, and finally returned to −80 mV.
Whole-cell tail current amplitude was measured at a holding potential of −55 mV, following activation of the current from −40 to +40 mV. Current amplitude was measured at the maximum (peak) of this tail current. Current density was obtained by dividing current amplitude by cell capacitance measured prior to capacitive transient minimization.
Current run-down and solvent effect correction. All data points presented in this example were corrected for solvent effect and time-dependent current run-down. Current run-down and solvent effects were measured simultaneously by applying the study design in test sample-free conditions over the same time frame as was done with the test sample. The loss in current amplitude measured during these so-called vehicle studies (representing both solvent effects and time-dependent run-down) was subtracted from the loss of amplitude measured in the presence of the test sample to isolate the effect of the test sample, apart from the effect of the solvent and the inevitable run-down in current amplitude over time.

Sprague Dawley male rats = test: Moxifloxacin-induced QTc prolongation in rats, oral complex pre-treatment; assay type: in vivo; settings: rat; Moxifloxacin 20 mg/kg i.v. over 20 minutes
Text: Methods. The present inventors formulated the product in a complex mixture as an oral application in order to facilitate drug delivery in cancer patients being treated with oral LQTS inducing drugs. Preclinical evaluation of the oral application was done by instrumented Sprague Dawley male (250-300 g) rats. Cutaneous ECG leads were used to maximize T wave detection. The animals in groups of 3 rats were briefly anesthetized with a light dose of isoflurane, and a pre-treatment ECG was obtained to establish well-defined T waves, and to rule-out existing arrhythmic predispositions. Pre-treatment ECG profiles were normal.
A single dose of the oral complex in the ratio of 9:1 Moxifloxicin was vortexed continuously for 5 minutes to obtain an emulsion and immediately administered by gavage. Moxifloxacin, a broad spectrum antibiotic with documented LQTS activity, was formulated in DMSO and 2 hours afterwards infused intravenously (femoral canula) over 20 minutes at a starting dose of 2.8 mg/kg. ECGs were recorded from 5 minutes prior to and during the 20 minute infusion. Then the animals were dosed at 6.1 mg/kg over 20 minutes; then 20 mg/kg over 20 minutes. In a positive control group moxifloxacin was infused alone. In a second group of rats the complex was given orally 2 hours prior to the first dose of moxifloxacin. […]

Male Hartley guinea pigs = test: Moxifloxacin-induced QTc prolongation in guinea pigs, oral phospholipids; assay type: in vivo, guinea pig; settings: for mitigation of MF-induced QT prolongation (in words): oral gavage 2 hours before 20 mg/kg i.v. MF, PL to drug ratio 1:1 (FIG. 11A)
HEK293 cell = settings: 20 μM, 24 h incubation; cited from earlier work
rabbits = settings: intravenous injection of 20 mg; cited from earlier work
hERG [2] = molecular target: T1, hERG; test: Whole-cell patch-clamp, protective effect of DMPC, DMPG, DMPC/DMPG, LysoPG and LysoPC against hERG inhibition by Nilotinib; settings: for inhibition of the hERG tail current density (in words) / Corrected Normalized Current Density / Normalized Current Density: HEK 293; for inhibition of the hERG tail current density (in words): lipid alone or Nilotinib 0.1 μM formulated in aqueous solution with lipid; for Corrected Normalized Current Density: corrected for solvent effect and current run-down, baseline 1.000; for Corrected Normalized Current Density / Normalized Current Density: Nilotinib 0.1 μM (alone in DMSO, with lipid in aqueous solution), 14:0 LysoPG […]; for Normalized Current Density: hERG tail current density relative to baseline 1.000, 5 min exposure; for protection against hERG inhibition caused by Nilotinib (in words): in vitro, co-formulated with Nilotinib

T1 sequence (Q12809 whole entry): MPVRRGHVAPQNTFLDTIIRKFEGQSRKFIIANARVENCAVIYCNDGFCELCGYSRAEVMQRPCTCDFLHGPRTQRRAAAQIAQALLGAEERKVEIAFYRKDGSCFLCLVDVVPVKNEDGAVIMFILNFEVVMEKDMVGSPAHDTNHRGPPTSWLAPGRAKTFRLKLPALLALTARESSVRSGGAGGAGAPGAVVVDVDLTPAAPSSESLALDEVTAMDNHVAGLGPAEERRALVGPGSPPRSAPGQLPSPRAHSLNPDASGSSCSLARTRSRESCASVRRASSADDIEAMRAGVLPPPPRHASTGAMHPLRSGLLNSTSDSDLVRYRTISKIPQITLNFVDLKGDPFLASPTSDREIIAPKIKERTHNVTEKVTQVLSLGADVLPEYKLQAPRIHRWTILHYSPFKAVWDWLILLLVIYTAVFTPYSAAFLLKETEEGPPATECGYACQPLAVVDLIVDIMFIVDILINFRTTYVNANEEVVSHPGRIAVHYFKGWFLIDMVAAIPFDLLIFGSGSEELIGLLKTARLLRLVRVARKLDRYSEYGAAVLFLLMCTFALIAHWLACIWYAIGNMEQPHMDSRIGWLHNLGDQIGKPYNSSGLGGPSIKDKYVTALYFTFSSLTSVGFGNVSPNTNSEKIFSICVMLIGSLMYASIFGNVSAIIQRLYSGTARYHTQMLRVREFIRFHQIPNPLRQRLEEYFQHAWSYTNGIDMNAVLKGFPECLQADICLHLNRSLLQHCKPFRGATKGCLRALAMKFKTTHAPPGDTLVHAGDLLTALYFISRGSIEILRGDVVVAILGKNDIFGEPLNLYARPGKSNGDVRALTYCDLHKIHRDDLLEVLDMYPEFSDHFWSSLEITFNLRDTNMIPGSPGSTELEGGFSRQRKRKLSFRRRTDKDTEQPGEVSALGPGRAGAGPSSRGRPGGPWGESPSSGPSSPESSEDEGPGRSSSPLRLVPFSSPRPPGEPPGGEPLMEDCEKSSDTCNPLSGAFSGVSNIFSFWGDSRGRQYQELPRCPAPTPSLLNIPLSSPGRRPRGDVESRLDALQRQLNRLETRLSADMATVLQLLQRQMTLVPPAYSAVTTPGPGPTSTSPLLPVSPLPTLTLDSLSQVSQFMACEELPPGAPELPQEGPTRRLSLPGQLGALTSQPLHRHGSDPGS

CCCCCCCCCC(=O)OC[C@@H](O)COP(=O)([O-])OCC(O)CO.[Na+] (mixture of isomers) [10:0 LysoPG, 1-decanoyl-2-hydroxy-sn-glycero-3-[phospho-rac-(1-glycerol)] sodium salt]
protective effect against hERG inhibition by Nilotinib (in words) (hERG [1]): prevented the inhibition | inhibition of the hERG tail current (in words) (hERG [1]): did not cause any inhibition

COc1c(N2C[C@@H]3CCCN[C@@H]3C2)c(F)cc2c(=O)c(C(=O)O)cn(C3CC3)c12 [Moxifloxacin]
QTc prolongation (Sprague Dawley male rats): 48 ms and 55 ms | QTc prolongation (Male Hartley guinea pigs; 20 mg/kg i.v. MF): 35 ms

CCCCCCCCCCCCCCCCCC(=O)OC[C@@H](O)COP(=O)([O-])OCC(O)CO.[Na+] (mixture of isomers) [18:0 LysoPG, 1-stearoyl-2-hydroxy-sn-glycero-3-[phospho-rac-(1-glycerol)] sodium salt]
protective effect against hERG inhibition by Nilotinib (in words) (hERG [1]): prevented the inhibition | inhibition of the hERG tail current (in words) (hERG [1]): did not cause any inhibition

CCCCCCCCCCCCCCCC(=O)OC[C@@H](O)COP(=O)([O-])OCC(O)CO.[Na+] (mixture of isomers) [16:0 LysoPG, 1-palmitoyl-2-hydroxy-sn-glycero-3-[phospho-rac-(1-glycerol)] sodium salt]
protective effect against hERG inhibition by Nilotinib (in words) (hERG [1]; listed as 16:0 Lyso PG, sodium salt): higher protective | protective effect against hERG inhibition by Nilotinib (in words) (hERG [1]; sodium salt): prevented the inhibition; also recorded: most potent | inhibition of the hERG tail current (in words) (hERG [1]): did not cause any inhibition

COc1cc(/C=C/C(=O)/C=C(O)/C=C/c2ccc(O)c(OC)c2)ccc1O [curcumin, Curcumin]
HEK293 cell viability (HEK293 cell): reduced the HEK293 cell viability | cardiac repolarization manifested by QTc values (rabbits): did not affect the cardiac repolarization

CCCCCCCCCCCCCC(=O)OC[C@@H](O)COP(=O)(O)OCC(O)CO (mixture of isomers) [14:0 LysoPG, 1-myristoyl-2-hydroxy-sn-glycero-3-[phospho-rac-(1-glycerol)] sodium salt]
protective effect against hERG inhibition by Nilotinib (in words) (hERG [1]; listed as 14:0 Lyso PG, sodium salt): higher protective | protective effect against hERG inhibition by Nilotinib (in words) (hERG [1]; sodium salt): prevented the inhibition; also recorded: most potent | inhibition of the hERG tail current (in words) (hERG [1]): did not cause any inhibition | inhibition of the hERG tail current density (in words) (hERG [2]): did not cause any inhibition | Corrected Normalized Current Density (hERG [2]): 1.124 | Normalized Current Density (hERG [2]): 0.930 | protection against hERG inhibition caused by Nilotinib (in words) (hERG [2]): protects against hERG inhibition

CCCCCCCCCCCCCC(=O)OC[C@H](COP(=O)([O-])OCC(O)CO)OC(=O)CCCCCCCCCCCCC.[Na+] (some centres unmarked) [DMPG, 1,2-dimyristoyl-sn-glycero-3-[phosphoric-(1-glycerol)] (sodium salt)]
mitigation of MF-induced QT prolongation (in words) (Male Hartley guinea pigs): prevented the MF-induced QTs prolongation | inhibition of the hERG tail current density (in words) (hERG [2]): did not cause any inhibition | Corrected Normalized Current Density (hERG [2]): 0.994 | Normalized Current Density (hERG [2]): 0.800 | protection against hERG inhibition caused by Nilotinib (in words) (hERG [2]; (sodium salt)): protects against hERG inhibition; also recorded: abrogated the effects of nilotinib

Cc1cn(-c2cc(NC(=O)c3ccc(C)c(Nc4nccc(-c5cccnc5)n4)c3)cc(C(F)(F)F)c2)cn1 [Nilotinib, reference compound]
inhibition at 5 min, 1 μM (hERG [1]; human, HEK 293 cells stably transfected with hERG, pH 7.4, read-out: inhibition of the hERG tail current): 70%

CCCCCCCCCCCC(=O)OC[C@@H](O)COP(=O)([O-])OCC(O)CO.[Na+] (mixture of isomers) [12:0 LysoPG, 1-dodecanoyl-2-hydroxy-sn-glycero-3-[phospho-rac-(1-glycerol)] sodium salt]
protective effect against hERG inhibition by Nilotinib (in words) (hERG [1]): prevented the inhibition | inhibition of the hERG tail current (in words) (hERG [1]): did not cause any inhibition

CCCCCCCCCCCCCC(=O)OCCOP(=O)(O)OCC(O)CO.N (centres unmarked) [14:0 EGPG, 2,3-dihydroxypropyl(2-[tetradecanoyloxy]ethyl)phosphate (ammonium salt)]
mitigation of MF-induced QT prolongation (in words) (Male Hartley guinea pigs): prevented the MF-induced QTs prolongation | protective effect against hERG inhibition by Nilotinib (in words) (hERG [1]; (ammonium salt)): prevented the inhibition; also recorded: higher protective | inhibition of the hERG tail current (in words) (hERG [1]): did not cause any inhibition
